Results from patent US8211861B2, “Compositions for and methods of enhancing the immune response to antigens” (Wittycell, priority 2007, dated 2012).

B1: ovalbumin (protein, UniProt P01012 2-386, looked up)
Ovalbumin: GSIGAASMEFCFDVFKELKVHHANENIFYCPIAIMSALAMVYLGAKDSTRTQINKVVRFDKLPGFGDSIEAQCGTSVNVHSSLRDILNQITKPNDVYSFSLASRLYAEERYPILPEYLQCVKELYRGGLEPINFQTAADQARELINSWVESQTNGIIRNVLQPSSVDSQTAMVLVNAIVFKGLWEKAFKDEDTQAMPFRVTEQESKPVQMMYQIGLFRVASMASEKMKILELPFASGTMSMLVLLPDEVSGLEQLESIINFEKLTEWTSSNVMEERKIKVYLPRMKMEEKYNLTSVLMAMGITDVFSSSANLSGISSAESLKISQAVHAAHAEINEAGREVVGSAEAGVDAASVSEEFRADHPFLFCIKHIATNAVLFFGRCVSP
notes: nominal antigen, Ovalbumin grade VII, Sigma

Assays:
[1] = system: Ova-specific target cells; assay: in vivo specific cytotoxic T cell (CD8+) response, specific lysis of Ova-specific target cells; set-up: species or system mouse; settings: for specific lysis of Ova-specific target cells in blood: Example 1, FIG. 1, 1 μg adjuvant with 50 μg Ova, day 0, target cells day 10, read day 11; for specific lysis of Ova-specific target cells in blood / average Ova-specific cytotoxic response (percent specific lysis): IV; for percentage of specific lysis of the target cells by CD8+ T cells: Example 5 Experiment B, FIG. 8, 50 μg OVA with 10 ng adjuvant; for percentage of specific lysis of the target cells by CD8+ T cells / average OVA-specific cytotoxic response (percent specific lysis) / enhancement of the CD8+ T cell response at low doses (specific lysis): IM; for percentage of specific lysis of the target cells by CD8+ T cells / average Ova-specific cytotoxic response (percent specific lysis) / average OVA-specific cytotoxic response (percent specific lysis): blood day 11; for average Ova-specific cytotoxic response (percent specific lysis): Example 2, FIG. 2; for average Ova-specific cytotoxic response (percent specific lysis) / average OVA-specific cytotoxic response (percent specific lysis): 400 μg Ova with or without 1 μg adjuvant; for average OVA-specific cytotoxic response (percent specific lysis): Example 2, FIG. 3; for enhancement of the CD8+ T cell response at low doses (specific lysis): Example 5, FIGS. 7 and 8, 50 μg OVA with 100 ng or 10 ng adjuvant
[2] = system: CD8+ T cells responsive to OVA; assay: SIINFEKL pentamer assay, percentage of OVA-specific CD8+ T cells; type: in vivo, mouse; settings: IM, days 0 and 14, blood day 21
Description: To verify the results obtained using the in vivo cytotoxicity assay described in the Examples above, similar experiments were performed and CD8+ T cell activation was determined by measuring the percentage of OVA-specific CD8+ T cells using a pentamer assay. Briefly, mice were injected intramuscularly with the indicated amounts of OVA and test adjuvant compound at either 1 μg or 100 ng per mouse, respectively on day 0 as follows:
Experiment A: • Group 1: 100 μl of PBS; • Group 2: 50 μg of Ova into 100 μl PBS; • Group 3: 50 μg of Ova with 1 μg αGalCer; • Group 4: 50 μg of Ova with 1 μg PBS-11 • Group 5: 50 μg of Ova with 1 μg PBS-14 • Group 6: 50 μg of Ova with […] PBS-57 • Group 7: 50 μg of Ova with 1 μg PBS-96
Experiment B: • Group 1: 100 μl of PBS; • Group 2: 50 μg of Ova into 100 μl PBS; • Group 3: 50 μg of Ova with 100 ng αGalCer; • Group 4: 50 μg of Ova with 100 ng PBS-11 • Group 5: 50 μg of Ova with 100 ng PBS-14 • Group 6: 50 μg of Ova with 100 ng PBS-57 • Group 7: […] of Ova with 100 ng PBS-96 A second injection was administered to the mice on day 14 and blood was collected from the mice on day 21. The lymphocytes were collected and analyzed by FACS analysis using H-2K^b SIINFEKL pentamer and CD8 antibody to detect CD8+ T cells responsive to OVA.

[3] = system: OVA-specific IgG2a; assay: OVA-specific IgG2a ELISA after intramuscular immunization; type: in vivo, mouse; settings: FIG. 12; IM, 50 μg OVA with 100 ng adjuvant, 14 days post-injection
Description: Mice (6 per group) were injected intramuscularly with 50 μg of OVA either alone or in combination with 100 ng of the indicated adjuvants (Freund's adjuvant was used as a positive control) as follows: • Group 1: […] of Ova with CFA/IFA (Positive control) • Group 2: 50 μg of Ova • Group 3: 50 μg of Ova and 100 ng of αGalCer • Group 4: 50 μg of Ova and 100 ng of PBS-11 • Group 5: 50 μg of Ova and 100 ng of PBS-14 • Group 6: 50 μg of Ova and 100 ng of PBS-57 • Group 7: 50 μg of Ova and 100 ng of PBS-96 At 14 days post-injection, blood samples were collected and ELISAs for IgG1 and IgG2a were performed using mouse monoclonal antibodies specific for OVA isotype IgG1 or IgG2a. The results are shown as the titer of the antibody in peripheral blood in ng/ml. The results for IgG1 are depicted in FIG. 11 and those for IgG2a are depicted in FIG. 12.

[4] = Example 6 Experiment A, FIG. 9, 50 μg Ova with 1 μg adjuvant
[5] = Example 6 Experiment B, FIG. 10, 50 μg Ova with 100 ng adjuvant

Molecule	specific lysis of Ova-specific target cells in blood [1]	percentage of specific lysis of the target cells by CD8+ T cells [1]	percentage of OVA specific CD8+ T cells (SIINFEKL pentamer) [2, 4]	average Ova-specific cytotoxic response (percent specific lysis) [1] [%]	average OVA-specific cytotoxic response (percent specific lysis) [1] [%]	enhancement of the CD8+ T cell response at low doses (specific lysis) [1]	percentage of OVA specific CD8+ T cells (SIINFEKL pentamer) [2, 5]	OVA specific IgG2a titer in peripheral blood [3]
CCCCCCCCCCCCCCCCCCCCCCCCCC(=O)N[C@@H](CO[C@H]1O[C@H](CNC(=O)CCCC[C@@H]2SC[C@@H]3NC(=O)N[C@@H]32)[C@H](O)[C@H](O)[C@H]1O)[C@H](O)[C@H](O)CCCCCCCCCCCCCC [PBS-11, reference compound]	did not result in specific lysis of cells	indistinguishable from the controls	not as effective	–	–	–	–	–
CCCCCCCCCCCCCCCCCCCCCCCCCC(=O)N[C@@H](CO[C@H]1O[C@H](CNC(C)=O)[C@H](O)[C@H](O)[C@H]1O)[C@H](O)[C@H](O)CCCCCCCCCCCCCC [PBS-14]	resulted in cytotoxic lysis of Ova-specific target cells	–	enhanced the percentage of OVA specific CD8+ T cells	83.3±6.1	52.07±29.56	unexpectedly better than other adjuvants	surprisingly much better at enhancing the CD8+ T cell response	enhanced the OVA specific IgG2a titer about as well as Freund's adjuvant and much better than PBS-57
CCCCCCCC/C=C\CCCCCCCCCCCCCC(=O)N[C@@H](CO[C@H]1O[C@H](CNC(C)=O)[C@H](O)[C@H](O)[C@H]1O)[C@H](O)[C@H](O)CCCCCCCCCCCCCC [PBS-57, reference compound]	–	indistinguishable from the controls	enhanced the percentage of OVA specific CD8+ T cells	88.1±6.2	56.11±13.34	–	–	–
CCCCCCCCCCCCCCCCCCCCCCCC(=O)N[C@@H](CO[C@H]1O[C@H](CNC(C)=O)[C@H](O)[C@H](O)[C@H]1O)[C@H](O)[C@H](O)CCCCCCCCCCCCCC [PBS-96]	resulted in cytotoxic lysis of Ova-specific target cells	–	enhanced the percentage of OVA specific CD8+ T cells	89.2±10.3	50.29±42.6	unexpectedly better than other adjuvants	surprisingly much better at enhancing the CD8+ T cell response	enhanced the OVA specific IgG2a titer about as well as Freund's adjuvant and much better than PBS-57
CCCCCCCCCCCCCCCCCCCCCCCCCC(=O)N[C@@H](CO[C@H]1O[C@H](CO)[C@H](O)[C@H](O)[C@H]1O)[C@H](O)[C@H](O)CCCCCCCCCCCCCC [αGalCer, α-galactosyceramide, reference compound]	–	indistinguishable from the controls	not as effective	–	–	–	–	–
B1	–	–	–	11.8±14.4	1.60±14.33	–	–	–
